The test system of one data set is WT-HepG2 cells. Kind of data set: Propranolol metabolite formation in WT-HepG2 cells (HPLC). The data set is classed as in vitro ADME, human. The conditions noted are these: 1 μM propranolol, 360 min. An excerpt:
Figure 5 Major metabolites of propranolol formed by the CYPs–UGT1A1 KI-HepG2 cells. […] Data are means ± SD of three technical replicates. N.D., not detected.

The subject of data set [1] is CYPs–UGT1A1 KI-HepG2 cells. The protocol:
The HepG2 cells were seeded in 96-well plates at 1.0 × 10^4 cells/well. […] After 24 h, to examine the cell viability, we performed a WST-8 (2-(2-methoxy-4-nitrophenyl)-3-(4-nitrophenyl)-5-(2,4-disulfophenyl)-2H-tetrazolium, monosodium salt) assay by using Cell Count Reagent SF according to the manufacturer’s instructions. The cell viability was calculated as the percentage of that in the cells treated with a vehicle only.
After 24 h, cell viability was examined by WST-8 assay. The cell viability was calculated as a percentage of the number of cells after treatment with a solvent only. The results shown are means ± SD of three technical replicates.

Data set [2] relates to CYPs–UGT1A1 KI-HepG2 cells. The experiment in a line: Propranolol metabolite formation in CYPs–UGT1A1 KI-HepG2 cells (HPLC). The data set is classed as in vitro ADME, human. As to conditions: 1 μM propranolol, 360 min.
Another data set addresses CYP2C9 (Homo sapiens, UniProt P11712). The procedure:
(§1) The cells were cultured on 48-well plates, then washed with pH 7.4 HBSS containing 10 mM HEPES and 25 mM glucose. […] After preincubation, HBSS containing 10 μM phenacetin, 10 μM diclofenac, 50 μM S-mephenytoin, 1 μM bufuralol, 10 μM midazolam, 10 μM 7′-hydroxy coumarin, or 1 μM propranolol was added, and the cells were incubated at 37 ℃ for 360 min. […] The samples were collected from the supernatant, then immediately mixed with the same volume of acetonitrile. The mixed solutions were centrifuged for 5 min at 15,000× g. […] HPLC analysis was performed using a LO-20AD SPD + RF (DGU-20A, LC-20AD, RF-20A xs, SIL-20AC, CBM-20A, SPD-20A, CTO-20AC; Shimadzu). The concentrations of each metabolite were calculated according to the respective standard followed by normalization to the protein content per well.
(§2) A value of p < 0.05 was considered statistically significant. Using the SigmaPlot v.
(§3) The quantity of metabolites (4′-hydroxy diclofenac, 1′-hydroxy bufuralol, and 1′-hydroxy midazolam; these compounds are metabolites for CYP2C9, 2D6, and 3A4, respectively) were measured by HPLC. Data represent the means ± SD (n = 3, technical replicates). Statistical analyses were performed using the unpaired two-tailed Student’s t test (** p < 0.01). […]

The target of another data set is T1, CYP2D6 (Homo sapiens, UniProt P10635).
T1 construct: P2A self-cleaving peptide (upstream linker from CYP2C9) (N); T2A self-cleaving peptide (linker to HygR) (C); expressed in transfected cells
T1 sequence (P10635 whole entry): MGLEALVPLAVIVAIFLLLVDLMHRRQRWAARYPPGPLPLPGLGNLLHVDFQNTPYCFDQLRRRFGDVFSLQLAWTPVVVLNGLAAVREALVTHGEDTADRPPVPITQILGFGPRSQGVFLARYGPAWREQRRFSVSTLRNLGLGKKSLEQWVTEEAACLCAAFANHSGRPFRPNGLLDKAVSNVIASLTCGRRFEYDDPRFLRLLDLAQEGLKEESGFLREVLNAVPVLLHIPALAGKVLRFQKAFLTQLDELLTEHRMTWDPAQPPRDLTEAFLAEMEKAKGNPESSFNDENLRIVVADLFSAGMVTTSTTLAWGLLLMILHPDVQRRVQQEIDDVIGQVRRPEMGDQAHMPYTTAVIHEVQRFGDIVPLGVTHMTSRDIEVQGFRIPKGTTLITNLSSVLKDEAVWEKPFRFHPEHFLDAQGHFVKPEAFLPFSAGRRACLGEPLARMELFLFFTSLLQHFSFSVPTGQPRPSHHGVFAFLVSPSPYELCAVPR
Kind of data set: CYP2D6 inhibition in CYPs–UGT1A1 KI-HepG2 cells (1′-hydroxy bufuralol formation, HPLC). The data set is classed as in vitro ADME. The protocol: as §1, §2, §3

In general, IC50 refers to the midpoint of a concentration-inhibition curve. The low end stands for inhibition by little substance, the high end for a need for much substance.

Sequence of CYP2C9 (P11712 whole entry): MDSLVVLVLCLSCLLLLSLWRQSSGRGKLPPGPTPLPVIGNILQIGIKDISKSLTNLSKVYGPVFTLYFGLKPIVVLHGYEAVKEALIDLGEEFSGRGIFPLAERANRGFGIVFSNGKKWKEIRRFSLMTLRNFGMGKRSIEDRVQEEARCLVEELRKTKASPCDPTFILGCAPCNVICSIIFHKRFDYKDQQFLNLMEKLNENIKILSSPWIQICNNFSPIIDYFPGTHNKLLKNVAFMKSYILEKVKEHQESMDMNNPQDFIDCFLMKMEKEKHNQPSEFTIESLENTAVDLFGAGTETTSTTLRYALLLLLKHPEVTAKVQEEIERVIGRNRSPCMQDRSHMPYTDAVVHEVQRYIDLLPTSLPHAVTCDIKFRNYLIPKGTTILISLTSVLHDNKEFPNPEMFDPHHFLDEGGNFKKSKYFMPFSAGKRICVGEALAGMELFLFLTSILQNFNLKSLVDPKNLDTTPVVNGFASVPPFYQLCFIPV

In the case of `CC(C)NCC(O)COc1ccc(O)c2ccccc12` (centres unmarked) [4′-hydroxy propranolol], the “Metabolite of propranolol formed (detection by HPLC)” value (from here on “Metabolite of propranolol formed”) in the data set with WT-HepG2 cells is recorded as “undetectable”.

In the case of `CC(C)NCC(O)COc1cccc2c(O)cccc12` (centres unmarked) [5′-hydroxy propranolol], in the data set with WT-HepG2 cells, the “Metabolite of propranolol formed” value was “undetectable”. For the compound `CC(=O)Nc1ccc(O)cc1` [acetaminophen], in data set [1], the “Cell viability of CYPs–UGT1A1 KI-HepG2 cells compared with WT-HepG2 cells” value (“Cell viability … compared with WT-HepG2 cells” for short) is on record as “lower”. Same read-out and setting: in the case of `CCc1oc2ccccc2c1C(=O)c1cc(Br)c(O)c(Br)c1` [benzbromarone] it was “lower”. In the case of `NCC(O)COc1cccc2ccccc12` (centres unmarked) [desisopropylpropranolol], the entries for the “Metabolite of propranolol formed” value (in the data set on WT-HepG2 cells; in data set [2]) were “undetectable” and “present at detectable levels”, respectively. Turning to `CN(C)CCCN1c2ccccc2CCc2ccccc21` [imipramine], the “Cell viability … compared with WT-HepG2 cells” value in data set [1] is reported as “lower”.

Consider `Nc1ccc(S(=O)(=O)Nc2ccnn2-c2ccccc2)cc1` [sulfaphenazole], for which the “CYP2C9 activity in the presence of the inhibitor” value on CYP2C9 is given as “significantly decreased”. Turning to `CN(C/C=C/C#CC(C)(C)C)Cc1cccc2ccccc12` [terbinafine], the “CYP2D6 activity in the presence of the inhibitor” value at CYP2D6 (10 μM inhibitor, 1 μM bufuralol, p < 0.01) is recorded as “significantly decreased”. At CYP2D6 (substrate 1 μM bufuralol, inhibitor 0.03-10 μM, 30 min preincubation, 360 min incubation), this compound came in with an IC50 of 63.5 nM. Regarding `Cc1c(C)c2c(c(C)c1O)CCC(C)(COc1ccc(CC3SC(=O)NC3=O)cc1)O2` (centres unmarked) [troglitazone], in data set [1], the “Cell viability … compared with WT-HepG2 cells” value was “lower”.

Values taken from article PMC9140068, “Generation of HepG2 Cells with High Expression of Multiple Drug-Metabolizing Enzymes for Drug Discovery Research Using a PITCh System” (Cells, 2022).
